# Results reported in patent US20200360365A1, “SUBSTITUTED HALO-QUINOLINE DERIVATES FOR USE IN THE TREATMENT OF LYMPHOMAS AND LEUKEMIA” (Instutut National de la Sante et de la Researche Medicale, priority 2018, published 2020).
# pIC50: −log10 of the molar value. Where two headings read alike, the source gives them in different places.
# How the values were obtained:
# [1] = system: plck-GAPDH tumor (AITL-like lymphoma) engrafted in NSG mice; experiment: Treatment of plck-GAPDH AITL lymphoma engrafted NSG mice; format: in vivo, mouse
# Experimental: Tumor Transplantation into NOD/SCIDγc−/− (NSG) Mice
# Single cell suspensions from spleen or lymph nodes of old (>18 months) plck-GAPDH mice with splenomegaly were injected intravenously (i.v.) into 6-8 week old NSG mice (1-2E7 splenocytes per mouse). Recipient mice were sacrificed for evaluation when the mice became weak and/or splenomegaly could be detected (30 to 60 days after injection). The different hematopoietic organs (liver, spleen, blood) were isolated and single cell suspension prepared for FACS analysis (see below).
# Treatment with NIK Inhibitor
# Plck-GAPDH tumors were injected into 10 NSG mice (see above) and 5 were treated with a newly developed chemical NIK inhibitor (compound 5 according to the invention) or with Vehicle. IP injections were performed every other day with compound 5 (250 μg in 100 μl DMSO/Tween-20/Labrafil) or vehicle (100 μl DMSO/Tween-20/Labrafil). The second NIK inhibitor used (compound 38 according to the invention) was more soluble and IP injections were performed every other day with compound 38 (250 μg in 100 μl NaCl 0,9%/mouse) or vehicle (100 μl NaCl 0,9%/mouse).
# Two different plck-GAPDH tumors expressing high levels of PD-1 on the CD4^+ T cells were injected into 10 NSG mice and the mice were treated with anti-PD1 antibody (clone PMP1-14, BioXcell; 125 μg in PBS/mouse) or an isotope control antibody daily for the first 2 days post-tumor injection, then every other day.
# Combined anti-PD1 and NIK Inhibitor Treatment
# The mice were injected with antibody (anti-PD1 or isotype control) in the morning and compound 38 according to the invention (injected in the evening) daily for the first 2 days plck-GAPDH post-tumor injection, then every other day. Same concentration as for single treatments was used.
# Recipient mice were sacrificed at endpoint (>10% weight loss or palpable splenomegaly). Single cell suspensions were prepared from the spleen, BM and liver for immunophenotypic FACS analysis.
# [2] = system: melanoma cell line A375; experiment: In vitro dose response study, A375 proliferation; format: cell-based, human; conditions: A375, 96h; for pIC50: Homo sapiens, A-375, graded concentration, cell concentration
# Experimental: The melanoma cell line A375 was treated during 96h with graded concentration of compounds 5, 38, 42 and 43. At the end of the culture period, the cell concentration was determined.
# [3] = molecular target: NIK (Homo sapiens, UniProt Q99558); conditions: patent PCT/EP2017/067306; cited from earlier work
# NIK, sequence (Q99558 whole entry): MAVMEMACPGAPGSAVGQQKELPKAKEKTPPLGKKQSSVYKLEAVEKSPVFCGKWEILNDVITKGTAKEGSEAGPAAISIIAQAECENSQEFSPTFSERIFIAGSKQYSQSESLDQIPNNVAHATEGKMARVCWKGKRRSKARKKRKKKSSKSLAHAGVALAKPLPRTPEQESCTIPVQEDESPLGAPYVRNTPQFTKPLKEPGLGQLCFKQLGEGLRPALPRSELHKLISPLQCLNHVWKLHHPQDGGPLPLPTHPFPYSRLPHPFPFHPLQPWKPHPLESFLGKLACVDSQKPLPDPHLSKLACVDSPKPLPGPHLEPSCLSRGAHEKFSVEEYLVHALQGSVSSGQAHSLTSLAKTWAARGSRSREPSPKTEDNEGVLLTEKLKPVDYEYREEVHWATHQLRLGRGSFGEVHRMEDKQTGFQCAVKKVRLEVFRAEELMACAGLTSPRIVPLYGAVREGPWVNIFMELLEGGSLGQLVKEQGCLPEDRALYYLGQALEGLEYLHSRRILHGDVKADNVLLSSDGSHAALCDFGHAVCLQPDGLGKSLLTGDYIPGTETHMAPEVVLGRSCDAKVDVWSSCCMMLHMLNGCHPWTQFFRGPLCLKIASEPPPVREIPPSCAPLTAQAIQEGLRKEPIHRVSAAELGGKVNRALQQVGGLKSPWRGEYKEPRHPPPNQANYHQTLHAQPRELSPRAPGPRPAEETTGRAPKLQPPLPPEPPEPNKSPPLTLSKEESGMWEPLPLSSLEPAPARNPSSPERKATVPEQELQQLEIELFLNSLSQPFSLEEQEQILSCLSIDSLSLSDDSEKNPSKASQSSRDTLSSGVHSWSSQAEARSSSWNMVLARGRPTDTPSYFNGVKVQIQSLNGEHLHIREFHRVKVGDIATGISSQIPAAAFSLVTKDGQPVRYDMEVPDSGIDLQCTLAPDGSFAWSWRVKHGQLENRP
# [4] = system: human Diffuse large B-cell lymphoma (DLBCL) B cell lines (U2932, KARPAS 422, SUDHL6, OCYL3); experiment: B cell lymphoma proliferation assay; format: cell-based; conditions: 10 μM, 96 h
# Experimental: B Cell Lymphoma Proliferation Assay
# The tested cancer cells are the following: the human Diffuse large B-cell lymphoma (DLBCL) cell lines: Karpas-422, SUDHL-6, U2932 and Oxyl3.
# Cells were counted using a flow cytometer (MACQUANT, Miltenyi). 2E5 cells were seeded in 2 ml RPMI-GlutamaX supplemented with 10% FCS at start of the proliferation assay in a 6-well plate supplemented with the NIK Inhibitor (compound 38) at 10 μM for 96 h. The cell numbers at 96h were then determined by counting using a flow cytometer. We distinguished dead and living cells using DAPI staining.
# Proliferation was calculated as followed:
# Proliferation (%)=(Treated cell number/untreated cells)*100.
# The average and standard deviation were determined from 3 independent experiments.
# [5] = Solubility; format: physicochemical
# [6] = system: human melanoma cells (A375); experiment: Cancer cell proliferation assay (trypan blue exclusion), A375; format: cell-based; conditions: 10 μM; proliferation normalized to DMSO-treated control
# Experimental: (§1) Cancer cell proliferation assay (A375, A549, PC3, HT-29, MiaPaca-2 and MCF-7)
# (§2) The tested cancer cells are the following: human melanoma cells (A375), lung carcinoma cells (A549), prostate cancer cells (PC3), colon adenocarcinoma (HT29), pancreas carcinoma (MiaPaca 2) and breast carcinoma (MCF-7).
# (§3) Cells were counted using a Malassez chamber. The average and standard deviation were calculated from triplicate experiments. Antiproliferative effects were evaluated by trypan blue exclusion assay. Briefly, cells were seeded into 12-well plate and grown in media supplemented with indicated compound at 1 or 10μM for 48h or 96h. Cells were washed with PBS and detached by trypsinization, collected and colored by trypan blue.
# (§4) Dead and living cells were counted and proliferation was calculated as follow: Proliferation (%)=[(treated cell number/untreated cells number)*100].
# (§5) As a comparison, cell viability was also determined and calculated as follow: Viability (%)=100−[(dead cell number/total cells)*100].
# [7] = system: lung carcinoma cells (A549); experiment: Cancer cell proliferation assay (trypan blue exclusion), A549; format: cell-based, human; conditions: 10 μM; proliferation normalized to DMSO-treated control
# Experimental: as §1, §2, §3, §4, §5
# [8] = system: prostate cancer cells (PC3); experiment: Cancer cell proliferation assay (trypan blue exclusion), PC3; format: cell-based, human; conditions: 10 μM; proliferation normalized to DMSO-treated control
# Experimental: as §1, §2, §3, §4, §5
# [9] = system: colon adenocarcinoma (HT29); experiment: Cancer cell proliferation assay (trypan blue exclusion), HT29; format: cell-based, human; conditions: 10 μM; proliferation normalized to DMSO-treated control
# Experimental: as §1, §2, §3, §4, §5
# [10] = system: pancreas carcinoma (MiaPaca 2); experiment: Cancer cell proliferation assay (trypan blue exclusion), MiaPaca-2; format: cell-based, human; conditions: 10 μM; proliferation normalized to DMSO-treated control
# Experimental: as §1, §2, §3, §4, §5
# [11] = system: breast carcinoma (MCF-7); experiment: Cancer cell proliferation assay (trypan blue exclusion), MCF-7; format: cell-based, human; conditions: 10 μM; proliferation normalized to DMSO-treated control
# Experimental: as §1, §2, §3, §4, §5
# [12] = system: human melanocytes (MHN); experiment: Melanocyte viability assay (MHN); format: cell-based; conditions: 10 μM, 96 h; viability normalized to DMSO-treated control
# Experimental: Melanocyte Viability Assay (MHN)
# Cell viability effects were evaluated by trypan blue exclusion assay. Briefly, cells were seeded into 12-well plate and grown in media supplemented with indicated compound at 10 μM for 96 h. Cells were washed with PBS and detached by trypsinization, collected and colored by trypan blue. Dead and living cells were counted and cell viability was calculated as follow: Viability (%)=100−[(dead cell number/total cells)*100].
# [13] = system: EZH2 mRNA in A375 cancer cells; experiment: Quantitative RT-PCR analysis of EZH2 gene expression; format: cell-based, human; conditions: 10 μM, 96 h
# Experimental: (§6) Quantitative RT-PCR Analysis of EZH2 and p21 Gene Expression
# (§7) Total RNA was isolated from cells using the RNAeasy minikit (Qiagen) according to the manufacturer's procedure. Reverse transcription was performed using the AMV reverse transcription system (Promega), and quantitative PCR was performed with Power Sybr green (Applied Biosystems, Life Technologies, Grand Island, N.Y.) following the manufacturer's instructions. The PCR was carried out on a Step One plus Real-Time PCR system (Applied Biosystems). All analyses were done in triplicate, and a melting curve analysis was performed to control for product quality and specificity. Expression levels were calculated using the comparative method of relative quantification, with SB34 as a normalizer. The data were analyzed for statistical significance using Student's t-test. The results are presented as the mean±SEM relative to the control.
# (§8) PCR primers for EZH2 (accession number NM004456.4) and p21(CDKN1A) (accession number NM078467.2) were obtained from primer bank or primer depot (http://pga.mgh.harvard.edu/primerbank/, https://primerdepot.nci.nih.gov), and their specificity was verified using primer blast (http://www.ncbi.nlm.nih.gov/tools/primer-blast/).
# [14] = system: p21 (CDKN1A) mRNA in A375 cancer cells; experiment: Quantitative RT-PCR analysis of p21 gene expression; format: cell-based, human; conditions: 10 μM, 96 h
# Experimental: as §6, §7, §8
# [15] = system: IFN-γ in supernatant of A375 cancer cells; experiment: ELISA measurement of IFN-γ in supernatant; format: cell-based, human; conditions: 10 μM, 96 h
# Experimental: Supernatant from cells treated for 96 h was tested for human or mouse IFN-γ content via ELISA (peprotech, cat 900-k27 and 900-k98) kit following the manufacturer's instructions.
# [16] = system: senescence-associated β-galactosidase (SA-β-Gal); experiment: Quantitative senescence-associated beta-galactosidase assay; format: cell-based; conditions: SA-β-Gal 4-MUG cleavage; relative to DMSO-treated control
# Source text: Quantitative Senescence-Associated Beta-Galactosidase Assay
# The production of the fluorophore was monitored at an […] wavelength of 365/460 nm, as reported (Gary and Kindell, 2005)
# [17] = Microsomal stability (mouse liver microsomes); format: in vitro ADME; conditions: mouse liver microsomes 0.5 mg/mL, NADPH 1 mM, 37° C.
# Experimental: Microsomal Stability (Mouse Liver Microsomes)
# Microsomal stability was evaluated with mouse liver microsomes (0.5 mg/mL) and NADPH cofactor (1 mM) at 37° C. The percentage of remaining compound is determined at 5 min by LC-MS by measuring the area under the peak of compound on the chromatogram.
# [18] = plck-GAPDH tumor engrafted NSG mice
SMILES,concentration at which inhibition of A375 proliferation starts [2],pIC50 [2],anti-NIK activity [3],Cancer Cell Proliferation A375 [6] [%],Cancer Cell Proliferation A549 [7] [%],Cancer Cell Proliferation PC3 [8] [%],Cancer Cell Proliferation HT29 [9] [%],Cancer Cell Proliferation MiaPaca-2 [10] [%],Cancer Cell Proliferation MCF-7 [11] [%],qPCR EZH2 A375 mRNA [13],qPCR p21 A375 mRNA [14],"ELISA IFN-γ (A375), IFN-γ concentration [15]","% Senescence, conversion rate [16] [%]",also measured
"COc1ccc(Nc2ccnc3cc(Cl)ccc23)cc1 [Compound 5, N-(4-methoxyphenyl)-7-chloroquinolin-4-amine]",around 5 mM,5.88,confirmed its activity in vitro,–,–,–,–,–,–,–,–,–,–,"GC B cells in the spleen at sacrifice [1, 18]: completely devoid of GC B cells; survival of tumor engrafted NSG mice as compared to the control group ([1]; plck-GAPDH tumor engrafted NSG mice, IP treatment day 1 and 2, then every other day): significant increased survival"
"COc1ccc(Nc2ccnc3cc(Cl)ccc23)cc1OC [Compound 38, N-(3,4-dimethoxyphenyl)-7-chloroquinolin-4-amine]",around 5 mM,6.25,potent,–,–,–,–,–,–,–,–,–,–,"survival of the plck-GAPDH tumor engrafted mice ([1]; NSG mice, compound 38 250 μg IP, anti-PD1 125 μg, every other day): up to 60%; B cells in the spleen at sacrifice [1, 18]: highly significant decrease; CD4+ T cells in the spleen [1, 18]: strong reduction; Tfh PD1high CD4+ population in the spleen [1, 18]: residual subpopulation; spleen size at sacrifice compared to controls [1, 18]: significant decrease in spleen size; CD8 cytotoxicity (IFNγ, granzyme B, perforin by cytotoxic CD8+ cells) ([1]; splenocytes at sacrifice, PMA/ionomycin 5 h): increasing CD8 IFNγ release; proliferation of B cell lymphoma cancer cell lines compared with controls (DMSO) [4]: strong inhibitory effect; cell viability of B cell lymphoma cell lines ([4]; data not shown): without affecting the cell viability; solubility [5]: more soluble; solubility ([5]; listed as COMPONENT 38): high solubility"
"COCCOc1ccc(Nc2ccnc3cc(Cl)ccc23)cc1 [Compound 42, 7-chloro-N-(4-(2-methoxyethoxy)phenyl)quinolin-4-amine]",around 5 mM,–,–,6.9,19.5,14.1,3.5,7.8,11.9,0.23 fold relative to DMSO-treated control,6.79 fold relative to DMSO-treated control,1.73 (ng/mL)/millions cells,645.9,Heathly Cell Viability MHN [12]: 99.0%
"COc1ccc(Nc2ccnc3cc(Cl)ccc23)cc1O [Compound 43, 7-chloro-N-(3-(hydroxy)-4-(methoxy)phenyl)quinolin-4-amine]",around 5 mM,–,–,30.5,51.1,55.0,15.6,32.4,29.5,0.62 fold relative to DMSO-treated control,3.08 fold relative to DMSO-treated control,0.41 (ng/mL)/millions cells,1875.1,"Microsomal stability, mouse liver (5 min), percentage of the remaining compound [17]: 41% ± 3; Microsomal stability, mouse liver (5 min), percentage of the remaining compound ([17]; listed as compound 43): 41%"
